Data: US3978210A, “Antibiotic aculeacins” (Toyo Jozo Kabushiki Kaisha, priority 1974, dated 1976)

Legend:
[1] = system: mouse; assay: Acute toxicity on mouse, LD50; type: in vivo
Excerpt: 4. Acute toxicity on mouse:
Aculeacins are almost insoluble in water, soluble in 1% sodium carboxy-methyl cellulose (CMC) solution and sodium deoxycholate (DOC). LD50 of aculeacin-A injection prepared by using those additives is as follows: […]

[2] = system: Microsporum gypseum; assay: Activity against fungi, giant colony growth inhibition; type: cell-based; settings: Sabroud agar, 26°C., 7 to 14 days
Experimental: (§1) 3. Activity against fungi:
(§2) Since aculeacins have no fungicidal activity, fungi are inoculated in Sabroud agar medium containing several concentrations of aculeacins, and incubated at 26°C. 7 to 14 days. 80% growth inhibitory concentrations of aculeacins are measured by the ratio of area of giant colony to that of control without aculeacins.

[3] = system: Diaporthe phaseolorum; assay: as above; type: cell-based; settings: Sabroud agar, 26°C., 7 to 14 days
Experimental: as §1, §2

[4] = system: Helminthosporium oryzae; assay: as above; type: cell-based; settings: Sabroud agar, 26°C., 7 to 14 days
Experimental: as §1, §2

[5] = system: Fusarium oxysporum f. lini; assay: as above; type: cell-based; settings: Sabroud agar, 26°C., 7 to 14 days
Experimental: as §1, §2

[6] = system: Ascochyta soyaecola; assay: as above; type: cell-based; settings: Sabroud agar, 26°C., 7 to 14 days
Experimental: as §1, §2

[7] = system: Aspergillus fumigatus; assay: as above; type: cell-based; settings: Sabroud agar, 26°C., 7 to 14 days
Experimental: as §1, §2

[8] = system: Corynespora cassicola; assay: as above; type: cell-based; settings: Sabroud agar, 26°C., 7 to 14 days
Experimental: as §1, §2

[9] = system: Trichophyton rubrum; assay: as above; type: cell-based; settings: Sabroud agar, 26°C., 7 to 14 days
Experimental: as §1, §2

[10] = system: Glomerella cingulata; assay: as above; type: cell-based; settings: Sabroud agar, 26°C., 7 to 14 days
Experimental: as §1, §2

[11] = system: Cercospora kikuchii; assay: as above; type: cell-based; settings: Sabroud agar, 26°C., 7 to 14 days
Experimental: as §1, §2

[12] = system: Collectotrichum linicolum; assay: as above; type: cell-based; settings: Sabroud agar, 26°C., 7 to 14 days
Experimental: as §1, §2

[13] = system: Sclerotium bataticola; assay: as above; type: cell-based; settings: Sabroud agar, 26°C., 7 to 14 days
Experimental: as §1, §2

[14] = system: Trichophyton asteroides; assay: as above; type: cell-based; settings: Sabroud agar, 26°C., 7 to 14 days
Experimental: as §1, §2

[15] = system: Candida albicans; assay: Activity against yeasts, minimum inhibitory concentration; type: cell-based; set-up: unit not given here; settings: Sabroud agar, 30°C., 48 hours
Experimental: (§3) 2. Activity against yeasts:
(§4) Assay medium: Sabroud agar, at 30°C., for 48 hours.

[16] = system: Candida pseudotropicalis; assay: as above; type: cell-based; settings: Sabroud agar, 30°C., 48 hours
Experimental: as §3, §4

[17] = system: Saccharomyces cerevisiae; assay: as above; type: cell-based; settings: Sabroud agar, 30°C., 48 hours
Experimental: as §3, §4

[18] = system: Cryptococcus neoiormans; assay: as above; type: cell-based; settings: Sabroud agar, 30°C., 48 hours
Experimental: as §3, §4

[19] = system: Candida quilliermondii; assay: as above; type: cell-based; settings: Sabroud agar, 30°C., 48 hours
Experimental: as §3, §4

[20] = system: Torula utilis; assay: as above; type: cell-based; settings: Sabroud agar, 30°C., 48 hours
Experimental: as §3, §4

[21] = system: Saccharomyces sake; assay: as above; type: cell-based; settings: Sabroud agar, 30°C., 48 hours
Experimental: as §3, §4

[22] = system: Candida parakrusei; assay: as above; type: cell-based; settings: Sabroud agar, 30°C., 48 hours
Experimental: as §3, §4

[23] = system: Candida tropicalis; assay: as above; type: cell-based; settings: Sabroud agar, 30°C., 48 hours
Experimental: as §3, §4

[24] = system: Mycotorula japonica; assay: as above; type: cell-based; settings: Sabroud agar, 30°C., 48 hours
Experimental: as §3, §4

[25] = system: Candida krusei; assay: as above; type: cell-based; settings: Sabroud agar, 30°C., 48 hours
Experimental: as §3, §4

Aculeacin-A was tested, and the LD50 ([1]; i.m., in CMC) was > 3460 mg/kg, the LD50 ([1]; i.m., in DOC) was 600 mg/kg and the LD50 ([1]; i.p., in CMC) was 600 mg/kg. The LD50 ([1]; i.v., in DOC) was 350 mg/kg, the LD50 ([1]; p.o., in CMC) was > 3000 mg/kg and the “80% growth inhibitory concentration” value [2] was 0.008 gamma/ml. For the same substance, the “80% growth inhibitory concentration” value [3] was 0.01 gamma/ml, the “80% growth inhibitory concentration” value [4] was 0.008 gamma/ml and the “80% growth inhibitory concentration” value [5] was 2.0 gamma/ml. The “80% growth inhibitory concentration” value [6] was 0.08 gamma/ml, the “80% growth inhibitory concentration” value [7] was 0.5 gamma/ml and the “80% growth inhibitory concentration” value [8] was 2.0 gamma/ml. For the same substance, the “80% growth inhibitory concentration” value [9] was 0.006 gamma/ml, the “80% growth inhibitory concentration” value [10] was 0.06 gamma/ml and the “80% growth inhibitory concentration” value [11] was 4.0 gamma/ml. The “80% growth inhibitory concentration” value [12] was 0.4 gamma/ml, the “80% growth inhibitory concentration” value [13] was 0.08 gamma/ml and the “80% growth inhibitory concentration” value [14] was 0.004 gamma/ml. For the same substance, the minimum inhibitory concentration ([15]; Candida albicans 1) was 0.2, the minimum inhibitory concentration ([15]; Candida albicans 2) was < 0.1 and the minimum inhibitory concentration ([15]; Candida albicans 3) was < 0.1. The minimum inhibitory concentration ([15]; Candida albicans 4) was 0.2, the minimum inhibitory concentration ([15]; Candida albicans 5) was 1.6 and the minimum inhibitory concentration ([15]; Candida albicans 6) was < 0.1. The minimum inhibitory concentration ([15]; Candida albicans 7) was 3.2, the minimum inhibitory concentration ([15]; Candida albicans 8) was 0.1 and the minimum inhibitory concentration [16] was 0.8. The minimum inhibitory concentration [17] was 1.6, the minimum inhibitory concentration [18] was > 100 and the minimum inhibitory concentration [19] was 0.8. The minimum inhibitory concentration [20] was < 0.1, the minimum inhibitory concentration [21] was 1.6 and the minimum inhibitory concentration [22] was 3.2. The minimum inhibitory concentration [23] was > 100, the minimum inhibitory concentration [24] was < 0.1 and the minimum inhibitory concentration [25] was 0.8.
